Several values for one entry are separate records, joined by “and”; a condition that tells them apart may be missing. Identical values can stand only once.
Columns and labels:
PRPK = PRPK (Homo sapiens (Human), UniProt Q96S44)
Method: (§1) The cells were harvested and lysed. The lysates were directly labeled with an ATP-biotin probe. Bound kinases were identified and quantitated by ACTIVX as described in Patricelli et al., Biochemistry, 2007, 46(2): 350-358. The compounds were tested in duplicates against duplicate or quadruplicate control samples.

PCTAIRE1 = PCTAIRE1 (Homo sapiens (Human), UniProt Q00536)
Method: as §1

MAPKAPK3 = MAPKAPK3 (Homo sapiens (Human), UniProt Q16644)
MAPKAPK3, sequence (Q16644 whole entry, looked up): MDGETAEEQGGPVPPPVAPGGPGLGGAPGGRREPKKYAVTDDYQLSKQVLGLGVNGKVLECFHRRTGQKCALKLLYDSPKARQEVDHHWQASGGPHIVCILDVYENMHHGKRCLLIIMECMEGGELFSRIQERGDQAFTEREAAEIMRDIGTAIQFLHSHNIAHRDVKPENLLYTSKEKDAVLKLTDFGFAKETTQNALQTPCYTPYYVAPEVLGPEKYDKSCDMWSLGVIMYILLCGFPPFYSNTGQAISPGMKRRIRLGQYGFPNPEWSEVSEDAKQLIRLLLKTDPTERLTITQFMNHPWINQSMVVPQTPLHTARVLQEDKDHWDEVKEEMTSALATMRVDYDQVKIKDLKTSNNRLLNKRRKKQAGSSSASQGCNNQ
Method: as §1

PCTAIRE2 = PCTAIRE2 (Homo sapiens (Human), UniProt Q00537)
PCTAIRE2, sequence (Q00537 whole entry, looked up): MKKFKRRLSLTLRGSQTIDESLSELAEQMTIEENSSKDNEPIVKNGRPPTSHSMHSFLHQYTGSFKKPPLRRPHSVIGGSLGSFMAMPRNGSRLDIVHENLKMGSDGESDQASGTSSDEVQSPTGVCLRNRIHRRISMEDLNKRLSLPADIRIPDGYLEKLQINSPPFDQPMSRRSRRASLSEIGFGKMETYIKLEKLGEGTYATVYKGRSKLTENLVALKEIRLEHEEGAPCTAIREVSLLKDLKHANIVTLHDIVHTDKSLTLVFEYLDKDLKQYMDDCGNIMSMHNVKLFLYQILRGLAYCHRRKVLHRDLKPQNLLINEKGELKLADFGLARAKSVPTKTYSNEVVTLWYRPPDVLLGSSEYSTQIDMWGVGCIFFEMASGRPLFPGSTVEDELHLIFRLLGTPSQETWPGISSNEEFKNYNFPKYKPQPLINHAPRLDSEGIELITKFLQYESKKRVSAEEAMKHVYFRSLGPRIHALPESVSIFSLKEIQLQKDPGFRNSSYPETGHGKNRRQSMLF
Method: as §1

PRP4 = PRP4 (Homo sapiens (Human), UniProt Q13523)
Method: as §1

PKD2 = PKD2 (Homo sapiens (Human), UniProt Q9BZL6); test: KINATIV assay; assay type: cell-based; details: 1 μM, 90 minutes, BCWM.1 cells
Summary of the method: (§2)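 Cell lysate + ATP-biotin probe (direct labeling); bound kinases ID'd/quantitated by ACTIVX. Cpds in duplicate vs duplicate or quadruplicate controls.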

STK33 = STK33 (Homo sapiens (Human), UniProt Q9BYT3); test: KINATIV assay; assay type: cell-based; details: 1 μM, 90 minutes, BCWM.1 cells
STK33, sequence (Q9BYT3 whole entry): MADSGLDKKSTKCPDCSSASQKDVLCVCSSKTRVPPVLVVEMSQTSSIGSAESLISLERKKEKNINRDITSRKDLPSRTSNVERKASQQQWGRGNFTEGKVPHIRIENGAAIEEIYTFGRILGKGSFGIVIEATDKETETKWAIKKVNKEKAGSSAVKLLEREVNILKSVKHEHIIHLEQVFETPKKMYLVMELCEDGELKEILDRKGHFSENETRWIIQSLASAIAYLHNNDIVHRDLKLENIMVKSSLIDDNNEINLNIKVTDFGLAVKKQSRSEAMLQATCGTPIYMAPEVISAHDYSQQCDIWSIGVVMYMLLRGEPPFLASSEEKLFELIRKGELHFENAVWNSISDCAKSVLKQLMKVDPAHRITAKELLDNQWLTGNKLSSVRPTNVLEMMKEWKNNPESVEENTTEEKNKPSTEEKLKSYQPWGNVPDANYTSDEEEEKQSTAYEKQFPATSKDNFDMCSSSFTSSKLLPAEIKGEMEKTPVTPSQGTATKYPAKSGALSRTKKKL
Summary of the method: as §2

SNRK = SNRK (Homo sapiens (Human), UniProt Q9NRH2); test: KINATIV assay; assay type: cell-based; details: 1 μM, 90 minutes, BCWM.1 cells
Summary of the method: as §2

MAP2K7 = MAP2K7 (Homo sapiens (Human), UniProt O14733); test: KINATIV assay; assay type: cell-based; details: 1 μM, 90 minutes, BCWM.1 cells
Summary of the method: as §2

ULK1 = ULK1 (Homo sapiens (Human), UniProt O75385); test: KINATIV assay; assay type: cell-based; details: 1 μM, 90 minutes, BCWM.1 cells
Summary of the method: as §2

TLK2 = TLK2 (Homo sapiens (Human), UniProt Q86UE8); test: KINATIV assay; assay type: cell-based; details: 1 μM, 90 minutes, BCWM.1 cells
Summary of the method: as §2

PKN1 = PKN1 (Homo sapiens (Human), UniProt Q16512); test: KINATIV assay; assay type: cell-based; details: 1 μM, 90 minutes, BCWM.1 cells
Summary of the method: as §2

CK1g2 = CK1g2 (Homo sapiens (Human), UniProt P78368); test: KINATIV assay; assay type: cell-based; details: 1 μM, 90 minutes, BCWM.1 cells
CK1g2, sequence (P78368 whole entry): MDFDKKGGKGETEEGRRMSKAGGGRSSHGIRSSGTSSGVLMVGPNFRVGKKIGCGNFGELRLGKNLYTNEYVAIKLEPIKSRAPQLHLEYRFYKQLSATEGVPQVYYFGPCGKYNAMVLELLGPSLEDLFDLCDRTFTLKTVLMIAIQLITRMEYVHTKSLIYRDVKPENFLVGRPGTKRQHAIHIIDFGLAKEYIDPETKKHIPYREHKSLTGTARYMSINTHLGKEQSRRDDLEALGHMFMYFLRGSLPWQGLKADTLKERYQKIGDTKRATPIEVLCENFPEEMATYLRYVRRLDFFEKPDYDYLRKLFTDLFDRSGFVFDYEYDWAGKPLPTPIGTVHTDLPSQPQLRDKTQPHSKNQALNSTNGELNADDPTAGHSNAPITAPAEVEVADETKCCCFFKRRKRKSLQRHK
Summary of the method: as §2

LKB1 = LKB1 (Homo sapiens (Human), UniProt Q15831); test: KINATIV assay; assay type: cell-based; details: 1 μM, 90 minutes, BCWM.1 cells
LKB1, sequence (Q15831 1-430): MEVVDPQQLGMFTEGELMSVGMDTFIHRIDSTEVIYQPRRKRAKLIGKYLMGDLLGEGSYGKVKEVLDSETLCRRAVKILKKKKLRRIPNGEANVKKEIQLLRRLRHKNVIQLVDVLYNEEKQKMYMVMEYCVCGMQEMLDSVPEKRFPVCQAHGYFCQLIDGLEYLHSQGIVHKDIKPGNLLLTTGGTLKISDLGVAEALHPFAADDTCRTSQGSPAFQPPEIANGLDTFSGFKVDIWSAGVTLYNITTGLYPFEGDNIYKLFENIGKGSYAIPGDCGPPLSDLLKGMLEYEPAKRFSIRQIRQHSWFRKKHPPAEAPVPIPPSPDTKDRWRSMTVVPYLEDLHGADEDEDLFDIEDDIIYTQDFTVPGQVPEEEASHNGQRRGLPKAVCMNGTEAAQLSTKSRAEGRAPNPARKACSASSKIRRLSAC
LKB1, sequence (Q7RTN6 whole entry partner): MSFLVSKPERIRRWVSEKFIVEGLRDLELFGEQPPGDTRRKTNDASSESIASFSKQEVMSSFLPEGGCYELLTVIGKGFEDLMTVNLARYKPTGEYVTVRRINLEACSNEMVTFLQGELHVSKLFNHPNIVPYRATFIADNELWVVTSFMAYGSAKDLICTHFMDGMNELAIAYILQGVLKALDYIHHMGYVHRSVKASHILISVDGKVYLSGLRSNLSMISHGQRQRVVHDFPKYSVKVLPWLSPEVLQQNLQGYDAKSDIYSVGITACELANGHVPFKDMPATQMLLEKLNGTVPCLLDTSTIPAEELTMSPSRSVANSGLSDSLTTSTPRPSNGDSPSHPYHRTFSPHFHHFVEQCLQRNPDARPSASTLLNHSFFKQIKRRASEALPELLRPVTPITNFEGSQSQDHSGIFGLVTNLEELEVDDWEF
LKB1, sequence (Q9Y376 whole entry partner): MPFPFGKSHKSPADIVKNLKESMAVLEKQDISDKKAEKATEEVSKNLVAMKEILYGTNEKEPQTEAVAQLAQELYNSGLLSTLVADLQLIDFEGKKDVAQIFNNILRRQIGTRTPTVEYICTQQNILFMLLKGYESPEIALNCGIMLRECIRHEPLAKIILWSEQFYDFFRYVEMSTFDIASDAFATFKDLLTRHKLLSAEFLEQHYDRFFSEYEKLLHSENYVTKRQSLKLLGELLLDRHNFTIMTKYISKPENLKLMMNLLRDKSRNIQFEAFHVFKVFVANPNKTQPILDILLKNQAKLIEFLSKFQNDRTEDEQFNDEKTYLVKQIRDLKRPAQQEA
Summary of the method: as §2

MST1 = MST1 (Homo sapiens (Human), UniProt Q13043); test: KINATIV assay; assay type: cell-based; details: 1 μM, 90 minutes, BCWM.1 cells
MST1, sequence (Q13043 whole entry): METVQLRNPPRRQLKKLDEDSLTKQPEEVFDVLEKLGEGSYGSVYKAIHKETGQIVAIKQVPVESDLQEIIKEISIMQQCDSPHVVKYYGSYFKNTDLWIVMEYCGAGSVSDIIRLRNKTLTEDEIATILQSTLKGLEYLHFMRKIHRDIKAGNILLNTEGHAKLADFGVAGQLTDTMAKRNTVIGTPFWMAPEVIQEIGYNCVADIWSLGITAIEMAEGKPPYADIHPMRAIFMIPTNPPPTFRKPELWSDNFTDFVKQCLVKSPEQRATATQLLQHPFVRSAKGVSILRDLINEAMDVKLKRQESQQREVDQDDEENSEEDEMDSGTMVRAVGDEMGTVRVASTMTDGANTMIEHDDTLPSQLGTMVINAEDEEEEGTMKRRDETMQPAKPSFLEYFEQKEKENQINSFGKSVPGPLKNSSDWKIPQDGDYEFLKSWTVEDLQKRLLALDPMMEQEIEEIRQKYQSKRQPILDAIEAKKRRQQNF
Summary of the method: as §2

IKKe, TBK1 = test: KINATIV assay; assay type: cell-based; details: 1 μM, 90 minutes, BCWM.1 cells
Summary of the method: as §2

Wnk1, Wnk2 = test: KINATIV assay; assay type: cell-based; details: 1 μM, 90 minutes, BCWM.1 cells
Summary of the method: as §2

BARK1 = BARK1 (Homo sapiens (Human), UniProt P25098); test: KINATIV assay; assay type: cell-based; details: 1 μM, 90 minutes, BCWM.1 cells
Summary of the method: as §2

CDK11, CDK8 = test: KINATIV assay; assay type: cell-based; details: 1 μM, 90 minutes, BCWM.1 cells
Summary of the method: as §2

ILK = ILK (Homo sapiens (Human), UniProt Q13418); test: KINATIV assay; assay type: cell-based; details: 1 μM, 90 minutes, BCWM.1 cells
Summary of the method: as §2

LCK = LCK (Homo sapiens (Human), UniProt P06239); test: KINATIV assay; assay type: cell-based; details: 1 μM, 90 minutes, BCWM.1 cells
Summary of the method: as §2

MSK1 domain1 = MSK1 domain1 (Homo sapiens (Human), UniProt O75582); test: KINATIV assay; assay type: cell-based; details: 1 μM, 90 minutes, BCWM.1 cells
Summary of the method: as §2

Erk1 = Erk1 (Homo sapiens (Human), UniProt P27361); test: KINATIV assay; assay type: cell-based; details: 1 μM, 90 minutes, BCWM.1 cells
Summary of the method: as §2

FES = FES (Homo sapiens (Human), UniProt P07332); test: KINATIV assay; assay type: cell-based; details: 1 μM, 90 minutes, BCWM.1 cells
Summary of the method: as §2

RSK3 = RSK3 (Homo sapiens (Human), UniProt Q15349); test: KINATIV assay; assay type: cell-based; details: 1 μM, 90 minutes, BCWM.1 cells
Summary of the method: as §2

STLK5 = STLK5 (Homo sapiens (Human), UniProt Q7RTN6); test: KINATIV assay; assay type: cell-based; details: 1 μM, 90 minutes, BCWM.1 cells
STLK5, sequence (Q7RTN6 whole entry): as the sequence (Q7RTN6 whole entry partner) above
Summary of the method: as §2

MST2 = MST2 (Homo sapiens (Human), UniProt Q13188); test: KINATIV assay; assay type: cell-based; details: 1 μM, 90 minutes, BCWM.1 cells
MST2, sequence (Q13188 whole entry): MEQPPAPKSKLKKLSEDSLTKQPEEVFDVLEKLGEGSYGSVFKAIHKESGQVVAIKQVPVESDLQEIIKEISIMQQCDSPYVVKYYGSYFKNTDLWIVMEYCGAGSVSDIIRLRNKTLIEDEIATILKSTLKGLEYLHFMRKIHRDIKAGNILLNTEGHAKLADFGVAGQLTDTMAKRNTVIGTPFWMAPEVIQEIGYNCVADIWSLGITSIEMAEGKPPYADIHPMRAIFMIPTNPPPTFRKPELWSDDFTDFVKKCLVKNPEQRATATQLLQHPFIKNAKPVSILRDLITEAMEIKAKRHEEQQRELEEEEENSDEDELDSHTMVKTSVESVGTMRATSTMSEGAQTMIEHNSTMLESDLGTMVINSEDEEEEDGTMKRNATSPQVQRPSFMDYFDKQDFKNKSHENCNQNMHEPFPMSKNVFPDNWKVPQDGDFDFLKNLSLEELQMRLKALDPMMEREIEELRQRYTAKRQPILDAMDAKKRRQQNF
Summary of the method: as §2

CK2a1 = CK2a1 (Homo sapiens (Human), UniProt P68400); test: KINATIV assay; assay type: cell-based; details: 1 μM, 90 minutes, BCWM.1 cells
Summary of the method: as §2

AKT1 = AKT1 (Homo sapiens (Human), UniProt P31749); test: KINATIV assay; assay type: cell-based; details: 1 μM, 90 minutes, BCWM.1 cells
Summary of the method: as §2

ROCK1 = ROCK1 (Homo sapiens (Human), UniProt Q13464); test: KINATIV assay; assay type: cell-based; details: 1 μM, 90 minutes, BCWM.1 cells
Summary of the method: as §2

[1] = test system: ZC1/HGK, ZC2/TNIK, ZC3/MINK; test: KINATIV assay; assay type: cell-based; details: 1 μM, 90 minutes, BCWM.1 cells
Summary of the method: as §2

MAP3K1 = MAP3K1 (Homo sapiens (Human), UniProt Q13233); test: KINATIV assay; assay type: cell-based; details: 1 μM, 90 minutes, BCWM.1 cells
Summary of the method: as §2

RSK4 domain1 = RSK4 domain1 (Homo sapiens (Human), UniProt Q9UK32); test: KINATIV assay; assay type: cell-based; details: 1 μM, 90 minutes, BCWM.1 cells
Summary of the method: as §2

PIK3C2B = PIK3C2B (Homo sapiens (Human), UniProt O00750); test: KINATIV assay; assay type: cell-based; details: 1 μM, 90 minutes, BCWM.1 cells
Summary of the method: as §2

MARK1, MARK2 = test: KINATIV assay; assay type: cell-based; details: 1 μM, 90 minutes, BCWM.1 cells
Summary of the method: as §2

eEF2K = eEF2K (Homo sapiens (Human), UniProt O00418); test: KINATIV assay; assay type: cell-based; details: 1 μM, 90 minutes, BCWM.1 cells
eEF2K, sequence (O00418 whole entry): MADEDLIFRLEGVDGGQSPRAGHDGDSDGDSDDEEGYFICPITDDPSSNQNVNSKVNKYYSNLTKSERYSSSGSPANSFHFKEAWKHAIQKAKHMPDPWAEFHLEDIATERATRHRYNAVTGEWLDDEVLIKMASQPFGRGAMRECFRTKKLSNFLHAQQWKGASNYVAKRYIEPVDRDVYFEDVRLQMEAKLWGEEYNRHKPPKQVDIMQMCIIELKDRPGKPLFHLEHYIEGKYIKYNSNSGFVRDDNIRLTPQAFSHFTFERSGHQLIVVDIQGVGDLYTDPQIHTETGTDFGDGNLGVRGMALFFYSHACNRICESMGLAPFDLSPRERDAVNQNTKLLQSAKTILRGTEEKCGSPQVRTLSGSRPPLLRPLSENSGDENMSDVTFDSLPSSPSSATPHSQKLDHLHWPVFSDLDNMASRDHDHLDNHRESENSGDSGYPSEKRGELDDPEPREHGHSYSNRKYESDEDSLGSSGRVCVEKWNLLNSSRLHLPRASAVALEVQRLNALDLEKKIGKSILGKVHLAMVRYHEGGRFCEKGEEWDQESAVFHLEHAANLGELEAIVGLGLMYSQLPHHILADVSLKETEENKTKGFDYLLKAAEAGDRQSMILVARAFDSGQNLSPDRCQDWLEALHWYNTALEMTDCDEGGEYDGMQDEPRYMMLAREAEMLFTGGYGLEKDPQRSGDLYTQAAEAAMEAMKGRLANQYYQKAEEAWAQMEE
Summary of the method: as §2

CDC2 = CDC2 (Homo sapiens (Human), UniProt P06493); test: KINATIV assay; assay type: cell-based; details: 1 μM, 90 minutes, BCWM.1 cells
Summary of the method: as §2

Compound | % change of MS signal compared to control sample (PRPK) | % change of MS signal compared to control sample (PCTAIRE1) | % change of MS signal compared to control sample (MAPKAPK3) | % change of MS signal compared to control sample (PCTAIRE2) | % change of MS signal compared to control sample (PRP4) | % change of MS signal compared to control sample (PKD2) | % change of MS signal compared to control sample (STK33) | % change of MS signal compared to control sample (SNRK) | % change of MS signal compared to control sample (MAP2K7) | % change of MS signal compared to control sample (ULK1) | % change of MS signal compared to control sample (TLK2) | % change of MS signal compared to control sample (PKN1) | % change of MS signal compared to control sample (CK1g2) | % change of MS signal compared to control sample (LKB1) | % change of MS signal compared to control sample (MST1) | % change of MS signal compared to control sample (IKKe, TBK1) | % change of MS signal compared to control sample (Wnk1, Wnk2) | % change of MS signal compared to control sample (BARK1) | % change of MS signal compared to control sample (CDK11, CDK8) | % change of MS signal compared to control sample (LCK) | other results
C=CC(=O)N1CCC(CNc2nccc(Nc3ncc(C(=O)Nc4c(C)cccc4C)s3)n2)C1 (racemic) [Example I-8] | 3.7% | 32.9% | 0.5% | 8.5% | −10.7% | 8.7% | 29.8% | 45.1% and 59.1% | −7.5% | 16.1% | 9.4% | 13.7% | −6.1% | −1.8% | 2.4% | 5.5% | −16.4% | −19.6% | 19.6% | 94.8% | % change of MS signal compared to control sample (ILK): 19.4% and 36.6%; % change of MS signal compared to control sample (MSK1 domain1): −45.5%; % change of MS signal compared to control sample (Erk1): −19.7%; % change of MS signal compared to control sample (FES): −13.3%; % change of MS signal compared to control sample (RSK3): 2.9%; % change of MS signal compared to control sample (STLK5): 1.1% and −4.0%; % change of MS signal compared to control sample (MST2): 4.3%; % change of MS signal compared to control sample (CK2a1): 13.9%; % change of MS signal compared to control sample (AKT1): −19.5%; % change of MS signal compared to control sample (ROCK1): 4.4%; % change of MS signal compared to control sample [1]: 13.6%; % change of MS signal compared to control sample (MAP3K1): 15.5%; % change of MS signal compared to control sample (RSK4 domain1): −8.2%; % change of MS signal compared to control sample (PIK3C2B): 12.5%; % change of MS signal compared to control sample (MARK1, MARK2): 14.6%; % change of MS signal compared to control sample (eEF2K): −1.5%
C=CC(=O)N1CCC(Cn2ccc(Nc3ncc(C(=O)Nc4c(C)cccc4Cl)s3)n2)C1 (stereo not drawn) [II-1] | −5.2% | 38.4% | 6.2% | 7.7% | 6.9% | 12.7% | 11.0% | 47.8% and 59.8% | −0.6% | 19.7% | 7.3% | 20.9% | −1.1% | −1.2% | 13.2% | −27.2% | −3.8% | −23.3% | −9.2% | 92.4% | % change of MS signal compared to control sample (CDC2): −5.2% and 2.7%; % change of MS signal compared to control sample (MSK1 domain1): −35.0%; % change of MS signal compared to control sample (Erk1): −17.6%; % change of MS signal compared to control sample (FES): −15.0%; % change of MS signal compared to control sample (RSK3): 22.3%; % change of MS signal compared to control sample (STLK5): 2.6% and 3.8%; % change of MS signal compared to control sample (MST2): 14.7%; % change of MS signal compared to control sample (CK2a1): 24.7%; % change of MS signal compared to control sample (AKT1): −17.8%; % change of MS signal compared to control sample (ROCK1): 12.8%; % change of MS signal compared to control sample [1]: 4.2%; % change of MS signal compared to control sample (MAP3K1): −1.2%; % change of MS signal compared to control sample (RSK4 domain1): −22.4%; % change of MS signal compared to control sample (PIK3C2B): −5.8%; % change of MS signal compared to control sample (MARK1, MARK2): 20.9%; % change of MS signal compared to control sample (eEF2K): −3.8%
C=CC(=O)N1CCCCC(Nc2nccc(Nc3ncc(C(=O)Nc4c(C)cccc4C)s3)n2)C1 (stereo not drawn) [Example I-7] | −3.8% | 38.2% | 0.9% | 9.9% | −4.1% | 10.0% | 21.1% | 40.7% and 58.7% | 11.2% | 19.3% | 7.3% | 4.2% | −3.7% | 1.2% | 3.0% | −10.7% | −8.6% | −29.7% | −3.5% | 96.5% | % change of MS signal compared to control sample (CDC2): −16.2%; % change of MS signal compared to control sample (ILK): 17.1% and 28.2%; % change of MS signal compared to control sample (MSK1 domain1): −40.5%; % change of MS signal compared to control sample (Erk1): −23.1%; % change of MS signal compared to control sample (FES): −20.9%; % change of MS signal compared to control sample (RSK3): 12.6%; % change of MS signal compared to control sample (MST2): 6.5%; % change of MS signal compared to control sample (CK2a1): 14.3%; % change of MS signal compared to control sample (AKT1): −16.4%; % change of MS signal compared to control sample (ROCK1): 6.6%; % change of MS signal compared to control sample [1]: 6.2%; % change of MS signal compared to control sample (MAP3K1): 7.9%; % change of MS signal compared to control sample (RSK4 domain1): −13.5%; % change of MS signal compared to control sample (PIK3C2B): 39.9%; % change of MS signal compared to control sample (MARK1, MARK2): 7.9%; % change of MS signal compared to control sample (eEF2K): 4.9%

Source: patent US10844077B2, “Thiazolyl-containing compounds for treating proliferative diseases” (Dana-Farber Cancer Institute, Inc., priority 2014, dated 2020)
